Test results from patent US20180312880A1, “NATURAL BROAD-SPECTRUM BIOCIDES” (CONSEJO SUPERIOR DE INVESTIGACIONES CIENTÍFICAS, priority 2015, published 2018).
In brackets after ≈: the same amount, converted by molar mass. Marks after values point to notes of the source that are not given here.

Legend:
Lactuca sativa = experiment: Phytotoxicity test on seeds (germination, root growth); details: for Germination (% C) 72 h / Growth (% C) Root: Lactuca sativa; for Germination (% C) 72 h / Growth (% C) Root / phytotoxic effects on germination and root development: in vivo; for Growth (% C) Root: 6 days
Description: […] 500 μl of distilled water and 10/5 seeds, were added to each well, and the plates were incubated in a growth chamber at 25° C., 70% relative humidity and a 16:08 L:D photoperiod. Seeds' germination was recorded for six days and the elongation of roots was assessed at the end of the experiment. The data were analysed by variance analysis (ANOVA).

M. persicae = experiment: Aphid settlement inhibition on leaf disks (% SI); format: in vivo, Myzus persicae; details: for M. persicae % SI: compounds at 50 μg/cm^2, 24 h; for EC50 (M. persicae): dose-response, settlement inhibition, limits in brackets
Description: (§1) Breeding and maintenance of the insects was carried out in a temperature-controlled chamber at 24±1° C., 60-70% relative humidity and a photoperiod of 16:8 hours (light:darkness). Larvae of S. littoralis were maintained on a semisynthetic diet (Poitut and Bues. 1970. Ann. Zool. Ecol. Anim. 2, 79-91) and aphids M. persicae and Rhopalosiphum padi on their host plants, pepper—Capsicum annuum L.—and barley—Hordeum vulgare L.—respectively. Tests on anti-feeding activity were carried out with newly hatched larvae of the sixth stage of S. littoralis and wingless adult aphids. The upper surface of leaf disks (1.0 cm^2) of the pepper (Capsicum annuum L.) were treated with 10 μl of a solution (10 mg/ml for extracts and 5 mg/ml for pure products). Each test consisted of 5 Petri dishes with two (S. littoralis) larvae per dish or twenty boxes (2×2 cm) with ten M. persicae or R. padi aphids incubated in a growth chamber under the same conditions described for the breeding of the insects. Once consumed 75% of the surface of the control dishes (S. littoralis) or after 24 h (M. persicae or R. padi) the consumption (% FI) or settlement index (% SI), was calculated respectively. % FI=[1−(T/C)×100], where T and C are the consumption of treated leaves discs and control; % SI=[1−(% T/C %)] where % C and % T are the percentage of aphids settled on the discs of control and treated leaves (Burgueño et al. 2008. J. Chem. Ecol. 34, 766-771). Compounds with an FI/SI>70% were tested in a dose-response experiment to calculate its relative potency (EC50, being the effective dose for a reduction of 50% of feeding).

M. javanica = experiment: Nematicidal activity on infective juveniles (J2); format: in vivo, Meloidogyne javanica; details: J2, 72 h
Description: The nematode population (M. javanica) was maintained in growth chambers on tomato plants—Lycopersicon esculentum (var Marmande)—at 25° C. and a relative humidity of 70%. The tests were carried out according to the methodology described for M. javanica (Andres et al. 2012. Phytochem. Rev. 11, 371-390) using the biological stage of infective juveniles (J2). […] Each treatment was repeated four times and nematicidal activity was determined from the percentage of infective juveniles dead after 72 h. In cases in which a mortality rate of >99% was determined, dose-response experiments were carried out to determine LC50 and LC90.

Botrytis cinerea = experiment: Antifungal activity, agar dilution, mycelial growth inhibition; format: cell-based; details: for inhibition at 500 µg/mL: 0.5 mg/ml, 48 h
Description: (§2) Phytopathogenic fungi Fusarium moniliforme (Sheldon) [CECT 2152] F. oxysporum fs. lycopersici ([…] 2715] and F. solani (Mart) [CECT 2199] come from the Spanish Type Culture Collection (CECT). The strain Botrytis cinerea Pers.:Fr. (B05.10) is a donation from the Biochemistry Department at the University of La Laguna (ULL). For their maintenance the strains were grown on solid commercial medium PDA at 25° C. […] To determine the antifungal activity, the agar dilution method was used (Murabayashi et al. 1991. J. Pesticide Sci. 16, 419-427). […] In parallel, controls were prepared with ethanol at a concentration of 2%. […] Colonies grown in petri dishes and incubated for 48 h were digitized and measured using the ImageJ 1.43 software. The percentage of inhibition (% I) was calculated as: % I=(C-T/C)×100, where C is the diameter of control colonies and T of the colonies of the tested samples. The growth inhibition effective dose (EC50) was determined by linear regression analysis (% of inhibition of dose log).

S. littoralis = experiment: Anti-feeding activity on leaf disks (% FI); format: in vivo, Spodoptera littoralis; details: compounds at 50 μg/cm^2
Description: as §1, with “Each test consisted of 5 Petri dishes with two (S. littoralis) larvae per dish or twenty boxes (2×2 cm) with ten M. persicae or R. padi aphids incubated in a growth chamber under the same conditions described for the breeding of the insects.” left out, “Compounds with an FI/SI>70% were tested in a dose-response experiment to calculate its relative potency (EC50, being the effective dose for a reduction of 50% of feeding).” left out

F. moniliforme = experiment: Antifungal activity, agar dilution, mycelial growth inhibition; format: cell-based, Fusarium moniliforme; details: Fusarium verticillioides; tested at 0.1 mg/ml (footnote a); 48 h
Description: as §2

R. padi = experiment: Aphid settlement inhibition on leaf disks (% SI); format: in vivo, Rhopalosiphum padi; details: compounds at 50 μg/cm^2; 24 h
Description: as §1, with “Each test consisted of 5 Petri dishes with two (S. littoralis) larvae per dish or twenty boxes (2×2 cm) with ten M. persicae or R. padi aphids incubated in a growth chamber under the same conditions described for the breeding of the insects.” left out, “Compounds with an FI/SI>70% were tested in a dose-response experiment to calculate its relative potency (EC50, being the effective dose for a reduction of 50% of feeding).” left out

F. solani = experiment: Antifungal activity, agar dilution, mycelial growth inhibition; format: cell-based; details: Fusarium solani
Description: as §2

Row | Structure (SMILES) | Germination (% C) 72 h (Lactuca sativa; 5 μg/μl) | Growth (% C) Root (Lactuca sativa; 5 μg/μl) [% C] | phytotoxic effects on germination and root development (Lactuca sativa) | M. persicae % SI (M. persicae) [%] | EC50 (M. persicae) (M. persicae) | M. javanica % paralysed (M. javanica; 0.25 mg/ml) [%] | M. javanica % paralysed (M. javanica; 0.5 mg/ml) [%] | inhibition at 500 µg/mL (Botrytis cinerea) [%] | EC50 (Botrytis cinerea; growth inhibition, linear regression, read-out: EC50 (95% CL) Botrytis cinerea) [µg/mL] | S. littoralis % FI (S. littoralis) [%] | inhibition at 100 µg/mL (F. moniliforme) [%] | R. padi % SI (R. padi) [%] | EC50 (F. solani; growth inhibition, linear regression, read-out: EC50 (95% CL) F. solani) [µg/mL] | inhibition at 100 µg/mL (F. solani; tested at 0.1 mg/ml (footnote a), 48 h) [%] | germination (Lactuca sativa; positive control of germination inhibition, 5 μg/μl)
1 | CCCCCC1=CC(=O)[C@](O)(CCCC)[C@H](O)C1 (stereo in doubt) [Stempholone A, 6-butyl-5,6-dihydroxy-3-pentylcyclohex-2-en-1-one] | 97.50 ± 3.54^ % C | 230.26 ± 21.33 | absence of phytotoxic effects | 81.42 ± 5.61 | 0.15 (0.06-0.36)* μg/cm^2 | 2.8 ± 0.5 | 83.05 ± 3.15 | 56.2 ± 1.5 | 430 (≈ 1690 µM) | 41.8 ± 7.9 |  |  |  |  | 
2 | CCCC[C@@]1(O)C(=O)C=C(CCCC(C)O)C[C@H]1O (stereo in doubt) [Stempholone B, 6-butyl-5,6-dihydroxy-3-(4-hydroxypentyl)cyclohex-2-en-1-one] | 100 ± 0.00 % C | 109.26 ± 9.57 | absence of phytotoxic effects | 83.87 ± 6.89 | 0.02 (0.003-0.15)* μg/cm^2 |  | 1.24 ± 0.9 | 11.9 ± 3.67 |  | 52.9 ± 5.9 | 4.2 | 45.13 ± 9.09 | 210 (≈ 777 µM) | 49.9 | 
3 | O=C1C=CC(=O)c2c(O)cccc21 [juglone, reference compound] |  |  |  |  |  |  |  |  |  |  |  |  |  |  | lower than 5%
